Data from the supplement of paper PMC10307832.

Columns and labels:
Experiment in all cases: relative viability (nuclei count vs DMSO), 5 days (fraction); higher = more cells survive
[1] = compound: Cc1ccccc1C(C(=O)NC1CCCCC1)N(C(=O)Cn1ccnc1C)c1cccc(F)c1 [IDH-C35] + CS(=O)(=O)N1CCN(Cc2cc3nc(-c4cccc5[nH]ncc45)nc(N4CCOCC4)c3s2)CC1 [Pictilisib] (partner 1 µM)
In short: (§1)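 Relative viability is defined as nuclei in treated wells over nuclei in vehicle wells. Duplicate plates were run and medians reported. Lung cancer cell lines in 1536-well plates were dosed by pin tool one day after seeding, with one drug or with a fixed anchor-drug dose plus five library-drug doses (not always all listed) in √10 steps, and nuclei were counted after 5 days.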

[2] = compound: CC1=C(C(=NN1)C)CC2=C(C3=C(S2)N(C(=O)N(C3=O)C)CC(C)C)C(=O)N4C[C@@H](CO4)O + O=C(c1cc(Cc2n[nH]c(=O)c3ccccc23)ccc1F)N1CCN(C(=O)C2CC2)CC1 [Olaparib] (partner 8 µM)
In short: as §1

[3] = compound: CC1=C(C(=NN1)C)CC2=C(C3=C(S2)N(C(=O)N(C3=O)C)CC(C)C)C(=O)N4C[C@@H](CO4)O + CCNC(=O)c1noc(-c2cc(C(C)C)c(O)cc2O)c1-c1ccc(CN2CCOCC2)cc1 [Luminespib] (partner 0.01 µM)
In short: as §1

[4] = compound: Cc1ccccc1C(C(=O)NC1CCCCC1)N(C(=O)Cn1ccnc1C)c1cccc(F)c1 [IDH-C35] + NC(=O)Nc1cc(-c2cccc(F)c2)sc1C(=O)N[C@H]1CCCNC1 [AZD7762] (partner 0.2 µM)
In short: as §1

| Cell Line | relative viability ([1]; first compound 0.08 µM) | relative viability ([1]; first compound 0.253 µM) | relative viability ([1]; first compound 0.8 µM) | relative viability ([1]; first compound 2.53 µM) | relative viability ([1]; first compound 8 µM) | relative viability ([2]; first compound 0.0025 µM) | relative viability ([2]; first compound 0.007906 µM) | relative viability ([2]; first compound 0.025 µM) | relative viability ([2]; first compound 0.07906 µM) | relative viability ([2]; first compound 0.25 µM) | relative viability ([3]; first compound 0.0025 µM) | relative viability ([3]; first compound 0.007906 µM) | relative viability ([3]; first compound 0.025 µM) | relative viability ([3]; first compound 0.07906 µM) | relative viability ([3]; first compound 0.25 µM) | relative viability ([4]; first compound 0.08 µM) | relative viability ([4]; first compound 0.253 µM) | relative viability ([4]; first compound 0.8 µM) | relative viability ([4]; first compound 2.53 µM) | relative viability ([4]; first compound 8 µM) |
| --- | --- | --- | --- | --- | --- | --- | --- | --- | --- | --- | --- | --- | --- | --- | --- | --- | --- | --- | --- | --- |
| NCI-H322M | 0.459 | 0.488 | 0.471 | 0.496 | 0.526 | 0.448 | 0.726 | 0.702 | 0.659 | 0.736 | 0.927 | 0.714 | 0.86 | 0.887 | 0.861 | 0.532 | 0.65 | 0.476 | 0.538 | 0.546 |
| NCI-H3122 | 0.628 | 0.572 | 0.592 | 0.611 | 0.598 | 0.62 | 0.659 | 0.64 | 0.618 | 0.628 | 0.088 | 0.101 | 0.0902 | 0.0646 | 0.11 | 1.02 | 0.996 | 1.02 | 0.987 | 1.03 |
| NCI-H2087 | 1.15 | 0.901 | 0.83 | 0.984 | 0.886 | 0.67 | 0.661 | 0.598 | 0.727 | 0.701 | 0.142 | 0.217 | 0.175 | 0.168 | 0.16 | 1.39 | 1.32 | 1.16 | 1.23 | 1.36 |
| LC-2-ad | 0.595 | 0.472 | 0.439 | 0.441 | 0.455 | 0.748 | 0.659 | 0.702 | 0.658 | 0.782 | 0.967 | 1.13 | 0.968 | 1.01 | 1.17 | 0.878 | 0.846 | 0.793 | 0.837 | 0.804 |
| NCI-H1915 | 0.976 | 0.914 | 0.975 | 0.934 | 0.914 | 0.259 | 0.251 | 0.266 | 0.249 | 0.255 | 0.868 | 0.738 | 0.75 | 0.768 | 0.816 | 0.674 | 0.7 | 0.696 | 0.663 | 0.716 |
| NCI-H1793 | 0.265 | 0.336 | 0.364 | 0.371 | 0.256 | 0.896 | 0.975 | 0.829 | 0.768 | 0.719 | 0.608 | 0.17 | 0.208 | 0.164 | 0.187 | 0.46 | 0.446 | 0.46 | 0.349 | 0.443 |
| RERF-LC-KJ | 0.53 | 0.671 | 0.529 | 0.554 | 0.509 | 0.958 | 0.832 | 1.04 | 0.926 | 0.883 | 1.25 | 1.36 | 1.22 | 1.16 | 1.32 | 1.03 | 1.03 | 0.982 | 0.794 | 1.01 |
| LXF-289 | 0.813 | 0.767 | 0.689 | 0.85 | 0.725 | 1.06 | 1 | 1.07 | 1.03 | 1.25 | 0.774 | 0.684 | 0.56 | 0.613 | 0.783 | 1.1 | 1.06 | 1.13 | 1.06 | 1.19 |
| PC-14 | 0.712 | 0.685 | 0.641 | 0.575 | 0.642 | 0.295 | 0.203 | 0.239 | 0.25 | 0.368 | 0.119 | 0.179 | 0.286 | 0.276 | 0.196 | 0.339 | 0.427 | 0.32 | 0.302 | 0.387 |
| NCI-H650 | 0.926 | 0.863 | 0.847 |  | 0.851 | 0.415 | 0.45 | 0.345 | 0.41 | 0.454 | 0.84 | 0.798 | 0.72 | 0.829 | 0.951 | 1.04 | 1.26 | 1.13 |  | 0.97 |
| NCI-H1666 | 0.471 | 0.404 | 0.322 | 0.622 | 0.426 | 0.751 | 0.742 | 0.766 | 0.769 | 0.725 | 0.991 | 1 | 1.06 | 1.04 | 1.1 | 0.934 | 1.03 | 0.795 | 0.712 | 0.94 |
| NCI-H2085 | 0.489 | 0.523 | 0.451 | 0.49 | 0.442 | 0.736 | 0.686 | 0.704 | 0.72 | 0.752 | 0.443 | 0.412 | 0.412 | 0.41 | 0.343 | 1.04 | 1.09 | 0.953 | 0.985 | 0.924 |
| NCI-H1734 | 0.503 | 0.499 | 0.427 | 0.414 | 0.432 | 0.663 | 0.635 | 0.576 | 0.511 | 0.53 | 0.297 | 0.184 | 0.173 | 0.184 | 0.167 | 0.575 | 0.623 | 0.532 | 0.49 | 0.551 |
